In US8846710B2, “Method of preferentially inducing the biosynthesis of interferon” (3M Innovative Properties Company, priority 2005, dated 2014):

Legend:
[1] = tested on: tumor necrosis factor (α) (TNF-α); experiment: Cytokine induction in human cells: TNF-α secreted by PBMC into culture media (ORIGEN M-Series immunoassay); type: cell-based; set-up: key to Maximal Response (pg/mL) TNF / Maximal Response TNF: If any negative values result from background subtraction, the reading is reported as “*”, and is noted as not reliably detectable; conditions: for Minimum Effective Concentration TNF / Maximal Response TNF: Table 11; for Minimum Effective Concentration TNF / Maximal Response TNF / minimal effective concentration: human PBMC; for Minimum Effective Concentration TNF: median where tested in more than one experiment; for Maximal Response TNF / Maximal Response (pg/mL) TNF: median; for Maximal Response TNF: * = TNF below experimental background of 40 pg/mL; for minimal effective concentration / Maximal Response (pg/mL) TNF: Table 10; for minimal effective concentration: lowest tested concentration inducing TNF-α over usually 40 pg/mL, median where more than one experiment, read-out: Minimum Effective Concentration (μM) TNF; for Maximal Response (pg/mL) TNF: maximal response in dose response curve, * = below experimental background level
Source text: (§1) Cytokine Induction in Human Cells
(§2) An in vitro human blood cell system is used to assess cytokine induction. Activity is based on the measurement of interferon (α) and tumor necrosis factor (α) (IFN-α and TNF-α, respectively) secreted into culture media as described by Testerman et. al. in “Cytokine Induction by the Immunomodulators Imiquimod and S-27609”, Journal of Leukocyte Biology, 58, 365-372 (September, 1995).
(§3) Blood Cell Preparation for Culture
(§4) Whole blood from healthy human donors is collected by venipuncture into vacutainer tubes or syringes containing EDTA. Peripheral blood mononuclear cells (PBMC) are separated from whole blood by density gradient centrifugation using HISTOPAQUE-1077 (Sigma, St. Louis, Mo.) or Ficoll-Paque Plus (Amersham Biosciences Piscataway, N.J.). Blood is diluted 1:1 with Dulbecco's Phosphate Buffered Saline (DPBS) or Hank's Balanced Salts Solution (HBSS). Alternately, whole blood is placed in Accuspin (Sigma) or LeucoSep (Oreiner Bio-One, Inc., Longwood, Fla.) centrifuge frit tubes containing density gradient medium. The PBMC layer is collected and washed twice with DPBS or HBSS and re-suspended at 4×10^6 cells/mL in RPMI complete. The PBMC suspension is added to 96 well flat bottom sterile tissue culture plates containing an equal volume of RPMI complete media containing test compound.
(§5) The compounds are solubilized in dimethyl sulfoxide (DMSO). The DMSO concentration should not exceed a final concentration of 1% for addition to the culture wells. The compounds are generally tested at concentrations ranging from 30-0.014 μM. Controls include cell samples with media only, cell samples with DMSO only (no compound), and cell samples with reference compound.
(§6) The solution of test compound is added at 60 μM to the first well containing RPMI complete and serial 3 fold dilutions are made in the wells. The PBMC suspension is then added to the wells in an equal volume, bringing the test compound concentrations to the desired range (usually 30-0.014 μM). The final concentration of PBMC suspension is 2×10^6 cells/mL. The plates are covered with sterile plastic lids, mixed gently and then incubated for 18 to 24 hours at 37° C. in a 5% carbon dioxide atmosphere.
(§7) Following incubation the plates are centrifuged for 10 minutes at 1000 rpm (approximately 200×g) at 4° C. The cell-free culture supernatant is removed and transferred to sterile polypropylene tubes. Samples are maintained at −30 to −70° C. until analysis. The samples are analyzed for IFN-α by ELISA and for TNF-α by IGEN/BioVeris Assay.
(§8) Interferon (α) and Tumor Necrosis Factor (α) Analysis
The TNF-α concentration is determined by ORIGEN M-Series Immunoassay and read on an IGEN M-8 analyzer from BioVeris Corporation, formerly known as IGEN International, Gaithersburg, Md. The immunoassay uses a human TNF-α capture and detection antibody pair (Catalog Numbers AHC3419 and AHC3712) from Biosource International, Camarillo, Calif. Results are expressed in pg/mL.
(§9) In total, the data output of the assay consists of concentration values of TNF-α and IFN-α (y-axis) as a function of compound concentration (x-axis).
Analysis of the data has two steps. First, the greater of the mean DMSO (DMSO control wells) or the experimental background (usually 20 pg/mL for IFN-α and 40 pg/mL for TNF-α) is subtracted from each reading. If any negative values result from background subtraction, the reading is reported as “*”, and is noted as not reliably detectable. In subsequent calculations and statistics, “*”, is treated as a zero. Second, all background subtracted values are multiplied by a single adjustment ratio to decrease experiment to experiment variability. The adjustment ratio is the area of the reference compound in the new experiment divided by the expected area of the reference compound based on the past 61 experiments (unadjusted readings). […]

interferon (α) (IFN-α) = experiment: Cytokine induction in human cells: IFN-α secreted by PBMC into culture media (ELISA); type: cell-based; set-up: key to Maximal Response (pg/mL) IFN: If any negative values result from background subtraction, the reading is reported as “*”, and is noted as not reliably detectable; conditions: for Maximal Response IFN / Minimum Effective Concentration IFN: Table 11, median where tested in more than one experiment; for Maximal Response IFN / Minimum Effective Concentration IFN / minimal effective concentration: human PBMC; for minimal effective concentration / Maximal Response (pg/mL) IFN: Table 10; for minimal effective concentration: lowest tested concentration inducing IFN-α over usually 20 pg/mL, median where more than one experiment, read-out: Minimum Effective Concentration (μM) IFN; for Maximal Response (pg/mL) IFN: maximal response in dose response curve, * = below experimental background level, median
Source text: as §1, §2, §3, §4, §5, §6, §7, §8
IFN-α concentration is determined with a human multi-subtype calorimetric sandwich ELISA (Catalog Number 41105) from PBL Biomedical Laboratories, Piscataway, N.J. Results are expressed in pg/mL.
as §9
Analysis of the data has two steps. First, the greater of the mean DMSO (DMSO control wells) or the experimental background (usually 20 pg/mL for IFN-α and 40 pg/mL for TNF-α) is subtracted from each reading. If any negative values result from background subtraction, the reading is reported as “*”, and is noted as not reliably detectable. In subsequent calculations and statistics, “*”, is treated as a zero. Second, all background subtracted values are multiplied by a single adjustment ratio to decrease experiment to experiment variability. The adjustment ratio is the area of the reference compound in the new experiment divided by the expected area of the reference compound based on the past 61 experiments (unadjusted readings). […] The reference compound used is 2-[4-amino-2-ethoxymethyl-6,7,8,9-tetrahydro-α,α-dimethyl-1H-imidazo[4,5-c]quinolin-1-yl]ethanol hydrate (U.S. Pat. No. 5,352,784; Example 91) and the expected area is the sum of the median dose values from the past 61 experiments. […]

SMILES | Minimum Effective Concentration TNF [1] [µM] | Maximal Response TNF [1] | Maximal Response IFN (interferon (α) (IFN-α)) [pg/mL] | Minimum Effective Concentration IFN (interferon (α) (IFN-α)) [µM] | minimal effective concentration [1] [µM] | Maximal Response (pg/mL) TNF [1] | minimal effective concentration (interferon (α) (IFN-α)) [µM] | Maximal Response (pg/mL) IFN (interferon (α) (IFN-α))
COCCc1nc2c(N)nc3ccccc3c2n1CCOCCN(C)S(C)(=O)=O [Analog 80] | 0.37 | 2191 pg/mL | 1630 | 0.014 | – | – | – | –
Cc1nc2c(N)nc3ccccc3c2n1CCCNC(=O)NC(C)C [Analog 81] | 10 | 490 pg/mL | 1134 | 3.33 | – | – | – | –
CCCNC(=O)NCCCCn1c(CCC)nc2c(N)nc3cc(-c4cccnc4)ccc3c21 [Analog 30] | – | – | – | – | 0.37 | 5284 pg/mL | 0.37 | 531 pg/mL
CCOCc1nc2c(N)nc3ccccc3c2n1CCCNS(C)(=O)=O [Analog 61] | 10 | 463 pg/mL | 1338 | 0.37 | – | – | – | –
CS(=O)(=O)NCCCCn1c(CCO)nc2c(N)nc3ccccc3c21 [Example 3, N-{4-[4-Amino-2-(2-hydroxyethyl)-1H-imidazo[4,5-c]quinolin 1-yl]butyl}methanesulfonamide] | – | * | 2340 | – | – | – | – | –
CCCCNC(=O)NCCCn1c(CCO)nc2c(N)nc3ccccc3c21 [Example 126] | >30 | * | 8361 | 1.11 | – | – | – | –
CC(C)(O)Cn1c(CO)nc2c(N)nc3cc(-c4cccc(O)c4)ccc3c21 [Example 168] | – | – | – | – | 10 | – | 0.37 | –
COCCc1nc2c(N)nc3cc(-c4cccnc4)ccc3c2n1CC(C)C [Analog 25] | – | – | – | – | 0.04 | 3151 pg/mL | 0.014 | 1199 pg/mL
COCCc1nc2c(N)nc3cc(-c4cncc(CO)c4)ccc3c2n1CC(C)(C)O [Analog 16] | – | – | – | – | 0.04 | 16296 pg/mL | 0.014 | 5868 pg/mL
CCOCc1nc2c(N)nc3cc(-c4ccccc4)ccc3c2n1CC(C)(C)O [Analog 24] | – | – | – | – | 0.12 | 2238 pg/mL | 0.014 | 440 pg/mL
CCc1nc2c(N)nc3ccccc3c2n1CC(C)(C)CNS(C)(=O)=O [Analog 64] | 3.33 | 1453 pg/mL | 1431 | 0.12 | – | – | – | –
CCc1nc2c(N)nc3cc(-c4cccnc4)ccc3c2n1CC1CCN(C(=O)C(C)C)CC1 [Analog 19] | – | – | – | – | 1.11 | 619 pg/mL | 0.12 | 1686 pg/mL
CCOCc1nc2c(N)nc3cc(-c4ccc(C)cc4)ccc3c2n1CC(C)(C)O [Analog 42] | – | – | – | – | 0.12 | 4456 pg/mL | 0.12 | 650 pg/mL
CN(CCOCCn1c(CCO)nc2c(N)nc3ccccc3c21)C(=O)C1CCCCC1 [Example 135] | 30 | 146 pg/mL | 2464 | 3.33 | – | – | – | –
Nc1nc2ccccc2c2c1nc(CCO)n2CCCNC(=O)c1cc2ccccc2cn1 [Example 2, N-{3-[4-Amino-2-(2-hydroxyethyl)-1H-imidazo[4,5-c]quinolin-1-yl]propyl}isoquinoline-3-carboxamide] | – | – | 507 | – | – | – | – | –
COCc1nc2c(N)nc3cc(-c4cccnc4)ccc3c2n1CC(C)(C)O [Analog 11] | – | – | – | – | 1.11 | 3445 pg/mL | 0.37 | 829 pg/mL
Nc1nc2cc(-c3ccccc3)ccc2c2c1nc(CCO)n2CCCN1CCCC1=O [Example 156] | – | – | – | – | >30 | * | >30 | *
CCCc1nc2c(N)nc3cc(-c4cccnc4)ccc3c2n1CCCCNC(=O)C1CCCC1 [Analog 36] | – | – | – | – | 0.37 | 2222 pg/mL | 0.12 | 521 pg/mL
Cc1ccc(S(=O)(=O)NCCCn2c(CCO)nc3c(N)nc4ccccc4c32)cc1 [Example 1, N-{3-[4-Amino-2-(2-hydroxyethyl)-1H-imidazo[4,5-c]quinolin-1-yl]propyl}-4-methylbenzenesulfonamide] | – | 143 pg/mL | 1072 | – | – | – | – | –
COCCc1nc2c(N)nc3ccccc3c2n1CCCNC(=O)c1cc2ccccc2cn1 [Analog 110] | 1.11 | 6169 pg/mL | 647 | 0.12 | – | – | – | –
CC(C)(N)Cn1c(CO)nc2c(N)nc3ccccc3c21 [Example 4, 1-(2-Amino-2-methylpropyl)-2-hydroxymethyl-1H-imidazo[4,5-c]quinolin-4-amine] | – | – | 1893 | – | – | – | – | –
Nc1nc2cc(-c3cncc(CO)c3)ccc2c2c1nc(CO)n2CC1CCCCC1 [Example 205] | – | – | – | – | – | – | – | 1087 pg/mL
CC(C)(O)Cn1c(CO)nc2c(N)nc3cc(-c4cncc(CO)c4)ccc3c21 [Example 189] | – | – | – | – | – | – | – | 4357 pg/mL
CC(C)C(=O)N1CCC(Cn2c(CO)nc3c(N)nc4cc(-c5cccnc5)ccc4c32)CC1 [Example 191] | – | – | – | – | – | – | – | 969 pg/mL
CC(C)NC(=O)NCCn1c(CO)nc2c(N)nc3ccccc3c21 [Example 365, N-{2-[4-amino-2-(hydroxymethyl)-1H-imidazo[4,5-c]quinolin-1-yl]ethyl}-N′-isopropylurea] | – | – | 1488 | – | – | – | – | –
Nc1nc2cc(-c3cccc(C(=O)N4CCOCC4)c3)ccc2c2c1nc(CO)n2CC1CCCCC1 [Example 206] | – | – | – | – | – | – | – | 1266 pg/mL
